Results reported in patent publication US11198713B2, “Agents modulating beta-catenin functions and methods thereof” (FOG PHARMACEUTICALS, INC., priority 2017, dated 2021).
Numbered stars: 1 amine (or outer) side, 2 acyl side, 3 side chain; on linkers, the order of the positions; unused ones are H or OH. Bridge positions count the residues as written; N and C are the ends. Square brackets hold non-standard residues; d marks the D form. Peptide text beside a SMILES is read from it. X12 = CN(CC=[*:3])CCC[C@@](C)(N[*:1])C(=O)[*:2]; X11 = CN(CC=[*:3])C[C@](C)(N[*:1])C(=O)[*:2]; X6 = CN(CC=[*:3])CC[C@](C)(N[*:1])C(=O)[*:2]; X13 = C[C@@](CCCCC=[*:3])(N[*:1])C(=O)[*:2]; X5 = C[C@](CCCCCC=[*:3])(N[*:1])C(=O)[*:2]; X7 = C[C@](CCCCC=[*:3])(N[*:1])C(=O)[*:2]; S5 = C=CCCC[C@](C)(N)C(=O)O

The compounds below were run against T1, full-length beta-catenin (Axin site) (Homo sapiens, UniProt P35222) (assay: Competition fluorescence polarization assay (Axin site probe)). Details: competition fluorescence polarization, Table 2; read-out: in vitro FP EC50.
T1 construct: 15 nM full-length beta-catenin, 20 nM FITC labeled peptide in buffer
T1 sequence (P35222 1-781): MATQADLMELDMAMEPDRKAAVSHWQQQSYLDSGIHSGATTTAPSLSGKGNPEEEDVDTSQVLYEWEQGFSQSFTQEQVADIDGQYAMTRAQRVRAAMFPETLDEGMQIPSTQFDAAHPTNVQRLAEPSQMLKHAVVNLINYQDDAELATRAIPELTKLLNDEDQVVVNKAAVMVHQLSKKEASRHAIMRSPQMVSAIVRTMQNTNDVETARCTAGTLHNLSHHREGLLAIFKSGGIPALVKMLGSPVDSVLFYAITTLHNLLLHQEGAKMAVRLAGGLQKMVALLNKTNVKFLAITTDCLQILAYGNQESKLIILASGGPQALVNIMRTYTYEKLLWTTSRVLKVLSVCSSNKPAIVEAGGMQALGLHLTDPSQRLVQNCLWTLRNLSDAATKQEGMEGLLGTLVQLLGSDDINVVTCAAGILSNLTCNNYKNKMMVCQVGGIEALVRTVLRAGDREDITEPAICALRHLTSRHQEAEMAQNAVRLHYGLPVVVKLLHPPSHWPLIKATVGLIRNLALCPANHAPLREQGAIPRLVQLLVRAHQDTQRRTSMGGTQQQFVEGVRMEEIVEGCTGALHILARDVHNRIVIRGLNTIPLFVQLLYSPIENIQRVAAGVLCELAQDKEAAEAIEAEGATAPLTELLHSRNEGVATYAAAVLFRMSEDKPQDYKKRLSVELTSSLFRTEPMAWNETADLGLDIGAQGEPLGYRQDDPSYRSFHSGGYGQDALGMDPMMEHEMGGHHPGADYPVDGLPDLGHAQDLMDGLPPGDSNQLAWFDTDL
Type: binding
How it was run: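 Competition FP: 15 nM full-length β-catenin pre-incubated 5 min with 20 nM FITC-labelled stapled Axin-site peptide, then titrated peptide added (3-fold series from 5 μM) for 15 min in the dark. Buffer 50 mM Tris pH 8.0, 250 mM NaCl, 2% glycerol, 0.5 mM EDTA; duplicate reads.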

Row | Structure (SMILES) | EC50 [nM]
1 | CC[C@H](C)[C@@H]1NC(=O)[C@H](C)NC(=O)[C@H](C)NC(=O)[C@H](CC(=O)O)NC(=O)[C@H](CC(C)C)NC(=O)[C@H]([C@@H](C)CC)NC(=O)[C@](C)(NC(=O)[C@H](C)NC(C)=O)CCCCCCC=CCOC(=O)N2CC[C@@](C(=O)N[C@@H](CCCNC(=N)N)C(=O)N[C@H](C(=O)N[C@@H](Cc3c[nH]c4ccccc34)C(N)=O)C(C)C)(C2)NC1=O [FP0408c, Ac-A-R8-I-L-D-A-A-I-MB-R-V-W-NH2] | > 5000
2 | CC[C@H](C)[C@@H]1NC(=O)[C@](C)(NC(=O)[C@H](C)NC(C)=O)CCCCCCC=CCOC(=O)N2CC[C@@](C(=O)N[C@@H](CCCNC(=N)N)C(=O)N[C@H](C(=O)N[C@@H](Cc3c[nH]c4ccccc34)C(N)=O)C(C)C)(C2)NC(=O)[C@H](C)NC(=O)[C@H](Cc2c[nH]cn2)NC(=O)[C@H](C)NC(=O)[C@H](CC(=O)O)NC(=O)[C@H](CC(C)C)NC1=O [FP0409c, Ac-A-R8-I-L-D-A-H-A-MB-R-V-W-NH2] | > 5000
3 | CC[C@H](C)[C@@H]1NC(=O)[C@H](Cc2c[nH]cn2)NC(=O)[C@H](C)NC(=O)[C@H](CC(=O)O)NC(=O)[C@H](CC(C)C)NC(=O)[C@H]([C@@H](C)CC)NC(=O)[C@](C)(NC(=O)[C@H](C)NC(C)=O)CCCCCC=CCOC(=O)N(C)C[C@@](C)(C(=O)N[C@@H](CCCNC(=N)N)C(=O)N[C@H](C(=O)N[C@@H](Cc2c[nH]c3ccccc23)C(N)=O)C(C)C)NC1=O [FP0495c, Ac-A-R7-I-L-D-A-H-I-MD-R-V-W-NH2] | 100 to 500
4 | CC[C@H](C)[C@@H]1NC(=O)[C@H](Cc2c[nH]cn2)NC(=O)[C@H](C)NC(=O)[C@H](CC(=O)O)NC(=O)[C@H](CC(C)C)NC(=O)[C@H]([C@@H](C)CC)NC(=O)[C@](C)(NC(=O)[C@H](C)NC(C)=O)CCCCC=CCN(C)CC[C@@](C)(C(=O)N[C@@H](CCCNC(=N)N)C(=O)N[C@H](C(=O)N[C@@H](Cc2c[nH]c3ccccc23)C(N)=O)C(C)C)NC1=O [FP0502a, Ac-A-R6-I-L-D-A-H-I-MF-R-V-W-NH2] (Ac-A[X7]ILDAHI[X6]RVW-NH2; staple 2-9) | 500 to 5000
5 | CC[C@H](C)[C@@H]1NC(=O)[C@H](Cc2c[nH]cn2)NC(=O)[C@H](C)NC(=O)[C@H](CC(=O)O)NC(=O)[C@H](CC(C)C)NC(=O)[C@H]([C@@H](C)CC)NC(=O)[C@](C)(NC(=O)[C@H](C)NC(C)=O)CCCN(C)C(=O)OCC=CCCCC[C@@](C)(C(=O)N[C@@H](CCCNC(=N)N)C(=O)N[C@H](C(=O)N[C@@H](Cc2c[nH]c3ccccc23)C(N)=O)C(C)C)NC1=O [FP0507c, Ac-A-MI-I-L-D-A-H-I-S6-R-V-W-NH2] | 500 to 5000
6 | CC[C@H](C)[C@@H]1NC(=O)[C@H](Cc2c[nH]cn2)NC(=O)[C@H](C)NC(=O)[C@H](CC(=O)O)NC(=O)[C@H](CC(C)C)NC(=O)[C@H]([C@@H](C)CC)NC(=O)[C@](C)(NC(=O)[C@H](C)NC(C)=O)CCCCCC=CCOC(=O)N2CC(C(=O)N[C@@H](CCCNC(=N)N)C(=O)N[C@H](C(=O)N[C@@H](Cc3c[nH]c4ccccc34)C(N)=O)C(C)C)(C2)NC1=O [FP0516c, Ac-A-R7-I-L-D-A-H-I-MA-R-V-W-NH2] | 100 to 500
7 | CC[C@H](C)[C@@H]1NC(=O)[C@H](Cc2cccs2)NC(=O)[C@H](C)NC(=O)[C@H](CC(=O)O)NC(=O)[C@H](CC(C)C)NC(=O)[C@H]([C@@H](C)CC)NC(=O)[C@](C)(NC(=O)[C@H](C)NC(C)=O)CCCCCCC=CCOC(=O)N2CC[C@@](C(=O)N[C@@H](CCCNC(=N)N)C(=O)N[C@H](C(=O)N[C@@H](Cc3c[nH]c4ccccc34)C(N)=O)C(C)C)(C2)NC1=O [FP0536c, Ac-A-R8-I-L-D-A-thi-I-MB-R-V-W-NH2] | > 5000
8 | CC[C@H](C)[C@@H]1NC(=O)[C@H](Cc2ccncc2)NC(=O)[C@H](C)NC(=O)[C@H](CC(=O)O)NC(=O)[C@H](CC(C)C)NC(=O)[C@H]([C@@H](C)CC)NC(=O)[C@](C)(NC(=O)[C@H](C)NC(C)=O)CCCCCCC=CCOC(=O)N2CC[C@@](C(=O)N[C@@H](CCCNC(=N)N)C(=O)N[C@H](C(=O)N[C@@H](Cc3c[nH]c4ccccc34)C(N)=O)C(C)C)(C2)NC1=O [FP0538c, Ac-A-R8-I-L-D-A-4pyr-I-MB-R-V-W-NH2] | 500 to 5000
9 | CC[C@H](C)[C@@H]1NC(=O)[C@H](Cc2ccccc2)NC(=O)[C@H](C)NC(=O)[C@H](CC(=O)O)NC(=O)[C@H](CC(C)C)NC(=O)[C@H]([C@@H](C)CC)NC(=O)[C@](C)(NC(=O)[C@H](C)NC(C)=O)CCCCCCC=CCOC(=O)N2CC[C@@](C(=O)N[C@@H](CCCNC(=N)N)C(=O)N[C@H](C(=O)N[C@@H](Cc3c[nH]c4ccccc34)C(N)=O)C(C)C)(C2)NC1=O [FP0540c, Ac-A-R8-I-L-D-A-F-I-MB-R-V-W-NH2] | > 5000
10 | CC[C@H](C)[C@@H]1NC(=O)[C@H](Cc2c[nH]cn2)NC(=O)[C@H](C)NC(=O)[C@H](CC(=O)O)NC(=O)[C@H](CC(C)C)NC(=O)[C@H]([C@@H](C)CC)NC(=O)[C@](C)(NC(=O)[C@H](C)NC(C)=O)CCCCCCC=CCOC(=O)N2CC[C@@](C(=O)N[C@@H](CO)C(=O)N[C@H](C(=O)N[C@@H](Cc3c[nH]c4ccccc34)C(N)=O)C(C)C)(C2)NC1=O [FP0542c, Ac-A-R8-I-L-D-A-H-I-MB-S-V-W-NH2] | 500 to 5000

Next, values leading:

Row | EC50 [nM] | Structure (SMILES)
11 | 100 to 500 | CC[C@H](C)[C@@H]1NC(=O)[C@H](Cc2c[nH]cn2)NC(=O)[C@H](C)NC(=O)[C@H](CC(=O)O)NC(=O)[C@H](CC(C)C)NC(=O)[C@H]([C@@H](C)CC)NC(=O)[C@](C)(NC(=O)[C@H](C)NC(C)=O)CCCCCCC=CCOC(=O)N2CC[C@@](C(=O)N[C@@H](C)C(=O)N[C@H](C(=O)N[C@@H](Cc3c[nH]c4ccccc34)C(N)=O)C(C)C)(C2)NC1=O [FP0410c, Ac-A-R8-I-L-D-A-H-I-MB-A-V-W-NH2]
12 | 500 to 5000 | CC[C@H](C)[C@@H]1NC(=O)[C@H](Cc2c[nH]cn2)NC(=O)[C@H](C)NC(=O)[C@H](CC(=O)O)NC(=O)[C@H](CC(C)C)NC(=O)[C@H]([C@@H](C)CC)NC(=O)[C@](C)(NC(=O)[C@H](C)NC(C)=O)CCCCCC=CCN(C)C[C@@](C)(C(=O)N[C@@H](CCCNC(=N)N)C(=O)N[C@H](C(=O)N[C@@H](Cc2c[nH]c3ccccc23)C(N)=O)C(C)C)NC1=O [FP0495a, Ac-A-R7-I-L-D-A-H-I-MD-R-V-W-NH2] (Ac-A[X5]ILDAHI[X11]RVW-NH2; staple 2-9)
13 | 100 to 500 | CC[C@H](C)[C@@H]1NC(=O)[C@H](Cc2c[nH]cn2)NC(=O)[C@H](C)NC(=O)[C@H](CC(=O)O)NC(=O)[C@H](CC(C)C)NC(=O)[C@H]([C@@H](C)CC)NC(=O)[C@](C)(NC(=O)[C@H](C)NC(C)=O)CCCC=CCOC(=O)N(C)CC[C@@](C)(C(=O)N[C@@H](CCCNC(=N)N)C(=O)N[C@H](C(=O)N[C@@H](Cc2c[nH]c3ccccc23)C(N)=O)C(C)C)NC1=O [FP0501c, Ac-A-R5-I-L-D-A-H-I-MF-R-V-W-NH2]
14 | 500 to 5000 | CC[C@H](C)[C@@H]1NC(=O)[C@H](Cc2c[nH]cn2)NC(=O)[C@H](C)NC(=O)[C@H](CC(=O)O)NC(=O)[C@H](CC(C)C)NC(=O)[C@H]([C@@H](C)CC)NC(=O)[C@](C)(NC(=O)[C@H](C)NC(C)=O)CCCN(C)CC=CCCC[C@@](C)(C(=O)N[C@@H](CCCNC(=N)N)C(=O)N[C@H](C(=O)N[C@@H](Cc2c[nH]c3ccccc23)C(N)=O)C(C)C)NC1=O [FP0506a, Ac-A-MI-I-L-D-A-H-I-S5-R-V-W-NH2] (Ac-A[X12]ILDAHI[S5]RVW-NH2; staple 2-9)
15 | < 100 | CC[C@H](C)[C@@H]1NC(=O)[C@H](Cc2c[nH]cn2)NC(=O)[C@H](C)NC(=O)[C@H](CC(=O)O)NC(=O)[C@H](CC(C)C)NC(=O)[C@H]([C@@H](C)CC)NC(=O)[C@](C)(NC(=O)[C@H](C)NC(C)=O)CCCN(C)CC=CCCCC[C@@](C)(C(=O)N[C@@H](CCCNC(=N)N)C(=O)N[C@H](C(=O)N[C@@H](Cc2c[nH]c3ccccc23)C(N)=O)C(C)C)NC1=O [FP0507a, Ac-A-MI-I-L-D-A-H-I-S6-R-V-W-NH2] (Ac-A[X12]ILDAHI[X13]RVW-NH2; staple 2-9)
16 | > 5000 | CC[C@H](C)[C@@H]1NC(=O)[C@H](Cc2cccnc2)NC(=O)[C@H](C)NC(=O)[C@H](CC(=O)O)NC(=O)[C@H](CC(C)C)NC(=O)[C@H]([C@@H](C)CC)NC(=O)[C@](C)(NC(=O)[C@H](C)NC(C)=O)CCCCCCC=CCOC(=O)N2CC[C@@](C(=O)N[C@@H](CCCNC(=N)N)C(=O)N[C@H](C(=O)N[C@@H](Cc3c[nH]c4ccccc34)C(N)=O)C(C)C)(C2)NC1=O [FP0537c, Ac-A-R8-I-L-D-A-3pyr-I-MB-R-V-W-NH2]
17 | > 5000 | CC[C@H](C)[C@@H]1NC(=O)[C@H](Cc2ccco2)NC(=O)[C@H](C)NC(=O)[C@H](CC(=O)O)NC(=O)[C@H](CC(C)C)NC(=O)[C@H]([C@@H](C)CC)NC(=O)[C@](C)(NC(=O)[C@H](C)NC(C)=O)CCCCCCC=CCOC(=O)N2CC[C@@](C(=O)N[C@@H](CCCNC(=N)N)C(=O)N[C@H](C(=O)N[C@@H](Cc3c[nH]c4ccccc34)C(N)=O)C(C)C)(C2)NC1=O [FP0541c, Ac-A-R8-I-L-D-A-fur-I-MB-R-V-W-NH2]
